# Assay results as given in PMC2765782 (Journal of medicinal chemistry, 2009).
# Key:
# RXR [1] = target: T1, RXR (Homo sapiens, UniProt P19793); settings: for RXR binding and homodimerization relative to 1 (luciferase output): 10^−7 M, 24 h, Caco-2 cells, compound 1 set to 1.0 (Figure 3)
# T1 sequence (P19793 227-462 limits assumed): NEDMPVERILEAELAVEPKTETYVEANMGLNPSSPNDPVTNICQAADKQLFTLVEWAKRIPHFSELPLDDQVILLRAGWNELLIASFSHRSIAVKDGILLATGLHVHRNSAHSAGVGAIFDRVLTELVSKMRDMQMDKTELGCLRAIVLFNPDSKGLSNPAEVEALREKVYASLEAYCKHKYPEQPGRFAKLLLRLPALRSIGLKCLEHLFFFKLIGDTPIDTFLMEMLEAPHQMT
# human RXRα [2] = target: T2, human RXRα (Homo sapiens, UniProt P19793); settings: 10^−7 M, 24 h, Caco-2 cells, versus ethanol control (Figure 4)
# T2 sequence (P19793 1-462): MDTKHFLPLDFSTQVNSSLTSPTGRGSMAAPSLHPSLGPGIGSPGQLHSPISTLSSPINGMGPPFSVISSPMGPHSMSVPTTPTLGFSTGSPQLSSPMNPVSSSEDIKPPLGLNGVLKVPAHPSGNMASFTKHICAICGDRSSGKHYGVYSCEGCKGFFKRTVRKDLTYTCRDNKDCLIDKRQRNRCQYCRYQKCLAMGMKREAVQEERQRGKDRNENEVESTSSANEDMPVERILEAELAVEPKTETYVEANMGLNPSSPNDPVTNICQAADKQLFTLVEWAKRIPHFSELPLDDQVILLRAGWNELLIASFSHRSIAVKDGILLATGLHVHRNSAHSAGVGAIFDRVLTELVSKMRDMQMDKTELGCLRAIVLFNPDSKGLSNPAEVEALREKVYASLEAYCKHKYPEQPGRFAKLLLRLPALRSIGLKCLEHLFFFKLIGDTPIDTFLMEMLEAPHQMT
# human RARα = target: T3, human RARα (Homo sapiens, UniProt P10276); settings: RARE-luciferase reporter, Caco-2 cells
# T3 sequence (P10276 1-462): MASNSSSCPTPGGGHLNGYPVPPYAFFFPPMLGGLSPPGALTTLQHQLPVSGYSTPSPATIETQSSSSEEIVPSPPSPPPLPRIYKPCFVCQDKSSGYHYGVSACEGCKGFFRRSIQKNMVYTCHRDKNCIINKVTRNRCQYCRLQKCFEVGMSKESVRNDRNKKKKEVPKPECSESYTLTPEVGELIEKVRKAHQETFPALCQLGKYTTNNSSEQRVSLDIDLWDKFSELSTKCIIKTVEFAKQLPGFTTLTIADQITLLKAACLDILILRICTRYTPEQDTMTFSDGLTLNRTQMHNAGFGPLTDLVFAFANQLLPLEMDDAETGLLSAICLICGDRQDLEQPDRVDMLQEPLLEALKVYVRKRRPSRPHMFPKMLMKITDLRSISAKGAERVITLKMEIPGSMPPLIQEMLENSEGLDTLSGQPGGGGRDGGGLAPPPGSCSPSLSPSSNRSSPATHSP
# T3 sequence (P19793 1-462 partner): T2 sequence (P19793 1-462)
# RXR [3] = target: T1, RXR; experiment: cell-based
# human RXRα [4] = target: T2, human RXRα; experiment: biochemical
# human RXRα [5] = target: T2, human RXRα; settings: based on Ki values of Table 1
# [6] = tested on: Human T-cell lymphoma (CTCL) cells (Hut78); settings: 24 h, versus ethanol vehicle control (Figure 5)
RAR agonist activity compared with 1 (human RARα),EC50 (RXR [3]) [nM],Ki (human RXRα [4]) [nM],apparent RXR binding affinity greater than 1 (human RXRα [5]) [%],"increase in efficacy based on EC50 values (RXR [1]; versus 1, Table 1) [%]",Compound,RXR binding and homodimerization relative to 1 (luciferase output) (RXR [1]),RXR-mediated transcriptional activity (RXRE-luciferase) (human RXRα [2]),apoptotic activity (caspases 3 and 7) [6]
significantly lower RAR binding,420,161,,,"C=C(c1cc2c(cc1C)C(C)(C)CCC2(C)C)c1ccc(C(=O)O)cc1F [Compound 18, 3-Fluoro-4-(1-(1,2,3,4-tetrahydro-1,1,4,4,6-pentamethylnaphthalen-7-yl)vinyl)benzoic acid]",about half as well as 1,transcriptional activity significantly above the ethanol control levels,
approximately equal to 1,43,12,75,20,"C=C(c1ccc(C(=O)O)c(F)c1)c1cc2c(cc1C)C(C)(C)CCC2(C)C [Compound 20, 2-fluoro-4-(1-(1,2,3,4-tetrahydro-1,1,4,4,6-pentamethylnaphthalen-7-yl)vinyl)benzoic acid]",,transcriptional activity significantly above the ethanol control levels,

# Second part, the compound before the results:
Compound,RAR agonist activity compared with 1 (human RARα),EC50 (RXR [3]) [nM],Ki (human RXRα [4]) [nM],apparent RXR binding affinity greater than 1 (human RXRα [5]) [%],"increase in efficacy based on EC50 values (RXR [1]; versus 1, Table 1) [%]",RXR binding and homodimerization relative to 1 (luciferase output) (RXR [1]),RXR-mediated transcriptional activity (RXRE-luciferase) (human RXRα [2]),apoptotic activity (caspases 3 and 7) [6]
"5-(1-(1,2,3,4-Tetrahydro-1,1,4,4,6-pentamethylnaphthalen-7-yl)vinyl)benzene-1,3-dioic Acid [Compound 14]",,,,,,,did not display significant RXR binding and activation,
"Cc1cc2c(cc1C(=O)c1ccc(C(=O)O)c(F)c1)C(C)(C)CCC2(C)C [Compound 21, 2-fluoro-4-(1-(3,5,5,8,8-pentamethyl-5,6,7,8-tetrahydronaphthalen-2-yl)carbonyl)benzoic acid]",,,,,,a small degree of RXR binding and homodimerization relative to 1,,
"Cc1cc2c(cc1C(=O)c1ccc(C(=O)O)cc1F)C(C)(C)CCC2(C)C [Compound 19, 3-Fluoro-4-(1-(3,5,5,8,8-pentamethyl-5,6,7,8-tetrahydronaphthalen-2-yl)carbonyl)benzoic acid]",,,,,,does not bind to RXR,,almost no apoptotic activity
"C=C(c1ccc(C(=O)O)c([N+](=O)[O-])c1)c1cc2c(cc1C)C(C)(C)CCC2(C)C [Compound 16, 4-(1-(1,2,3,4-Tetrahydro-1,1,4,4,6-pentamethylnaphthalen-7-yl)vinyl)-2-nitrobenzoic Acid]",slightly greater RAR agonist activity,200,81,,,,transcriptional activity significantly above the ethanol control levels,
